Data from patent publication US11248022B2, “Glypican-3 peptide reagents and methods” (THE REGENTS OF THE UNIVERSITY OF MICHIGAN, priority 2017, dated 2022).
Ends that are not written are not given here.

Assays:
[1] = Biodistribution of peptide in excised organs; format: in vivo, mice; details: excised organs 2 hours post injection, n=5
Procedure: To assess the biodistribution of peptide probe, mice (n=5) were sacrificed 2 hours after injection of 250 μL of 300 μM ALL*-Cy5.5 using a fluorescence imaging system (IVIS Spectrum, PerkinElmer, Mass.). The organs were harvested and imaged ex vivo. Mice injected with scrambled control peptide, QLE*-Cy5.5 and free dye Cy5.5 were imaged with the same filters and exposure time. Absence of auto fluorescence was confirmed in PBS injected mice. The amount of fluorescent signal in each organ was quantified as a percentage of total fluorescence signal (p/s) in each mouse. Ex vivo fluorescence images taken of internal organs as well as resected tumor 2 hours post injection of probes are shown in FIG. 10A. Free Cy5.5 dye and Cy5.5 labeled targeting and scrambled peptides accumulated most in the liver and kidneys of mice, followed by GI tract and spleen.

Hep3B xenograft tumors = assay: Ex vivo confocal validation on Hep3B xenograft sections and normal liver; parameters: species or system mice
Text: (§1) The specimens were also sectioned for collection of confocal images to perform microscopic validation of peptide binding ex vivo.

SK-Hep1 xenograft tumors = assay: Immunostaining on GPC3 negative SK-Hep1 xenograft sections; parameters: species or system mice; details: no GPC3 expression
Text: FIGS. 18A-D show immunostaining on GPC3 negative HCC xenograft tumor.
as §1

Hep3B xenograft = assay: In vivo NIR laparoscopic imaging of HCC xenograft tumors; parameters: species or system mice
Procedure: Human HCC cells Hep3B and SK-Hep1 were cultured in Eagle's Minimum Essential Medium (EMEM) at 37° C. in 5% CO2, and supplemented with 10% fetal bovine serum (FBS) and 1% penicillin/streptomycin. Western blotting was performed to validate expression level of GPC3. Cells were diluted in growth factor reduced (GFR) Matrigel Matrix (Corning), and injected into one flank of female (to avoid male dominance within a cage) nude athymic mice (nu/nu, Jackson Laboratory) at 4 to 6 weeks of age with weight between 20 to 25 grams. ˜5×10^6 cells were implanted per mouse.
A standard surgical laparoscope (#49003 AA, HOPKINS® II Straight Forward Telescope 0°, Karl Storz) that is ˜10 mm in diameter and has a 31 cm length rigid sheath was adapted to collect reflectance and fluorescence concurrently. Nude mice with human HCC xenograft 2 weeks post implantation were tail vein injected with 200 μL 300 μM GPC3 peptide ALL*-Cy5.5. During imaging, the mice were anesthetized with inhaled isoflurane. We first used laparoscope with white light illumination to exam the xenograft. Laparoscopic images were taken two hours post injection in both fluorescence and reflection mode simultaneously with excitation solid state diode laser (660-S, Toptica Photonics) to deliver excitation at λex=660 nm into the fiber optic light guide. Images were collected at 5 frames/sec with a laser power of 1.2 mW. Hoechst 33342 (H1399, Life Technologies) at a dose of 10 mg/kg diluted in 200 μL of PBS was delivered intravenously via a tail vein injection to stain the cell nuclei 30 minutes before sacrificing the mouse. Xenograft tumors were resected and confocal fluorescence images were collected with Cy5.5 and DAPI filters 50 μm beneath the surface using a confocal microscope (Leica SPSX Upright 2-Photon Confocal Microscope). Following imaging, resected xenografts were fixed and formalin embedded for immunohistochemistry and H&E staining as described previously.
Fluorescence images of mouse HCC xenograft taken at 2 hrs post peptide injection were registered with corresponding reflectance images taken simultaneously. The fluorescence intensity of each pixel in the image was divided by intensity of corresponding pixel in the reflectance image in order to account for the difference in distance between each pixel and the laser source. A heat map image was generated from the resulting ratios at each pixel. Image segmentation was performed automatically by custom Matlab (Mathworks) software program using Ostu's Method [Otsu, Automatica, 11(285-296): 23-27 (1975)]. Target to background ratio of each processed image was calculated by dividing the average intensity of pixels inside the segmented tumor and that of those within 30 pixels outside of segmentation outline.

SK-Hep1 cells = assay: Confocal microscopy of peptide binding to SK-Hep1 cells; format: cell-based, human
Procedure: FIGS. 6-2A-Q show validation of specific peptide binding to cells in vitro. […] The Hep3B versus SK-Hep1 difference was also larger for antibody than QLE (P=2.3×10^−8, 6.0-fold larger). Intensity was measured with 6 replicates per condition and fitted to an ANOVA model with terms for 9 means to log-transformed data. […] We further validated specific peptide binding to GPC3 using siRNA knockdown. […] Q) Quantified fluorescence intensities. The siCL vs siGPC3 difference was 7.4 times bigger for ALL than the same difference for QLE (P=7.8×10^−5), and the difference for antibody was 8.9 times bigger than for QLE (P=2.5×10^−5), by ANOVA on log-transformed data. Results are an average of 6 images collected independently.
On confocal microscopy, it was shown that ALL*-Cy5.5 binds to the surface (arrows) of cells with different levels of GPC3 expression. […] GPC3 is highly overexpressed in Hep3B cell cytosol and membrane while moderately expressed in HepG2 cells. No GPC3 expression is observed in SK-Hep1 cells. Tubulin serves as loading control for either cytosol or membrane fractions loaded.

human HCC = assay: Immunofluorescence on human liver biopsies ex vivo
Text: Specific peptide binding to human HCC was confirmed on patient biopsies (n=41) ex vivo from University of Michigan Hospital. […] Antibody staining of the same tissue confirmed minimal GPC3 expression, FIG. 15B. Binding by ALL*-Cy5.5 peptide and AF488-labeled anti-GPC3 antibody co-localized on normal liver specimen with Pearson's correlation coefficient of p=0.62, FIG. 15C. Co-stained regions were also imaged at 40×, FIG. 15D and 100× (dashed box in Panel D) magnifications, FIG. 15E.
Quantitative comparison of ALL*-Cy5.5 binding to human HCC with normal liver, adenoma and cirrhosis tissue was summarized in FIG. 15U.

[2] = tested on: GPC3 positive tumor (from Hep3B cells); assay: In vivo whole body fluorescent imaging of HCC xenograft; details: 2 hours post injection
Procedure: Mice bearing HCC xenograft tumor (arrowheads) were i.v. injected with 250 μL of 300 μM near NIR GPC3 targeting peptide ALL*-Cy5.5, scrambled control peptide QLE*-Cy5.5 and unlabeled Cy5.5 free dye alone. ALL*-Cy5.5 was also injected in mice bearing GPC3 negative tumor (from SK Hep-1 cells, arrows) as control of EPR effect. Pre-injection imaging confirmed no autofluorescence was present.

[3] = 41 patients, log-transformed data

ALLANHEELFQT (SEQ ID NO: 1) peptide labeled with Cy5.5 via a GGGSK linker on the C-terminus (ALLANHEELFQTGGGSK-{Cy5.5}) [ALL*-Cy5.5]
signal in the tumor vs scrambled probe, GPC3 negative tumor, free dye [1]: significantly higher
cell surface staining of xenograft sections (Hep3B xenograft tumors; Hep3B xenograft sections, compared with QLE*-Cy5.5): increased cell surface staining
intensity from peptide binding, HCC vs normal (Hep3B xenograft tumors; n=26): 2.22 fold
staining of normal mouse liver (Hep3B xenograft tumors; normal mouse liver sections): Minimal staining
staining of xenograft sections (SK-Hep1 xenograft tumors): No staining
staining of cell surface on excised tumor xenograft (confocal) (Hep3B xenograft; 40× magnification): intense staining
T/B ratio relative to QLE*-Cy5.5 (Hep3B xenograft; NIR laparoscope, 2 hours): 2.8 fold
target-to-background (T/B) ratio (Hep3B xenograft; NIR laparoscope, 2 hours after i.v. injection, n=8): 8.3±1.3
fluorescence intensity from binding to cell surface (SK-Hep1 cells): minimal signal
signal in HCC relative to adenoma (human HCC; [3]): 2.48 fold
signal in HCC relative to cirrhosis (human HCC; [3]): 2.05 fold
signal in HCC relative to normal (human HCC; [3]): 3.43 fold
immunofluorescence staining (human HCC; HCC tissue): Strong intense staining
immunofluorescence staining (human HCC; adenoma tissue): Minimal staining
immunofluorescence staining (human HCC; cirrhotic liver tissue): moderate diffuse staining
immunofluorescence staining (human HCC; human normal liver tissue): negative staining
mean tumor signal vs scrambled peptide, GPC3 negative tumor and free dye [2]: significantly higher
target-to-background (T/B) ratio ([2]; mean±SD): 3.91±0.58
